Results from patent publication US12129312B2, “Peptide compound, application thereof and composition containing same” (priority 2017, dated 2024).
Read-outs that look alike come from different tables or passages of the source. Square brackets hold non-standard residues; d marks the D form. Peptide text beside a SMILES is read from it. * marks the point of attachment. dTyr(3-F) = N[C@H](Cc1ccc(O)c(F)c1)C(=O)O; PEG8 = NCCOCCOCCOCCOCCOCCOCCOCCOCCC(=O)O; Phe(4-Me) = Cc1ccc(C[C@H](N)C(=O)O)cc1; Pro(4,4-F2) = O=C(O)[C@@H]1CC(F)(F)CN1; 1Nal = N[C@@H](Cc1cccc2ccccc12)C(=O)O; 2Nal = N[C@@H](Cc1ccc2ccccc2c1)C(=O)O; dNMeY = CN[C@H](Cc1ccc(O)cc1)C(=O)O; Palmitoyl = CCCCCCCCCCCCCCCC(=O)*; Tic = O=C(O)[C@@H]1Cc2ccccc2CN1; NMeL = CN[C@@H](CC(C)C)C(=O)O; NMeS = CN[C@@H](CO)C(=O)O; Nle = CCCC[C@H](N)C(=O)O; Thz = O=C(O)[C@@H]1CSCN1; βAla = NCCC(=O)O

Experiments:
[1] = biological target: T1, human Chemokine like receptor 1 (Homo sapiens, UniProt Q99788); test: Activation of Tango CMKLR1-bla U2OS cells (beta-lactamase FRET reporter); assay type: cell-based
T1 construct: host or cells: U2OS (Tango CMKLR1-bla U2OS)
T1 sequence (Q99788 1-373): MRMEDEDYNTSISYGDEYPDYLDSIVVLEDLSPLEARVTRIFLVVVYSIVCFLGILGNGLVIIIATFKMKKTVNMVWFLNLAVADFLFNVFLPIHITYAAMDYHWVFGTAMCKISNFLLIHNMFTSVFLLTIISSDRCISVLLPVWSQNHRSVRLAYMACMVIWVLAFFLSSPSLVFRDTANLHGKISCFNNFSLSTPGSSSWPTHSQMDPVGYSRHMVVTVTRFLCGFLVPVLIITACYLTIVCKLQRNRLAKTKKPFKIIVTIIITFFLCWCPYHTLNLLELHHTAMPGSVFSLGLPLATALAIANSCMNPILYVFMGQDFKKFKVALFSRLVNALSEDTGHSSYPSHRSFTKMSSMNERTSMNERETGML
In short: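 Agonist mode in Tango CMKLR1-bla U2OS cells, 10000 cells/well seeded overnight, then 10-point 3-fold compound dilutions from 10 mM DMSO stock applied for 4 h at 37 °C, 5% CO2. Beta-lactamase reporter read with CCF4-AM FRET substrate; peptide (D-Tyr)-Phe-Leu-Pro-(D-Ser)-Gln-Phe-(D-Ala)-Tic-Ser served as positive control.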

[2] = Plasma stability, human plasma; assay type: in vitro ADME; settings: 37° C., time points 0 minute, 1, 2 and 4 hours, LC-MS/MS, read-out: Human plasma (T1/2 (h)) (converted)
Experimental: (§1) 1. Preparation of 50 mM Phosphate Buffer (50 mM Sodium Phosphate and 70 mM NaCl):
(§2) 5.750 g of Na2HPO4, 1.141 g of NaH2PO4 and 4.095 g of NaCl (Shanghai Titan) were weighed and dissolved in 1000 mL of ultrapure water and the pH was adjusted to 7.4. The prepared phosphate buffer was stored in the refrigerator at 4° C., valid for one week.
(§3) 2. Preparation of Compound Stock Solution:
(§4) 1) 5 mg/mL test compound: 5 mg of compound was weighed and dissolved in 1 mL of DMSO.
(§5) 2) 20 mM control: 2.728 mg of nococaine was dissolved in 0.5 mL of DMSO. 3.878 mg of fenfluramide was dissolved in 0.5 mL of DMSO (Amresco).
(§6) 3. Preparation of Experimental Plasma:
(§7) The frozen plasma (human: Shanghai ChemPartner, Rat, Mouse: Shanghai Xipuer-Beikai, Dog, Monkey: Suzhou Xishan Zhongke) was taken out from the −80° C. refrigerator, immediately placed in a 37° C. water bath, and thawn with gentle shaking. The thawed plasma was poured into a centrifuge tube, and centrifuged at 3000 rpm for 8 minutes. The supernatant was collected for the experiment. The pH of the plasma was measured with a pH meter (METTLER TOLEDO), and only the plasma with a pH between 7.4 and 8 was used for the experiment. The plasma was placed on an ice bath for later use.
(§8) 4. Preparation of the Dosing Solution:
(§9) 1) 125 μg/mL test compound solution: 5 μL of 5 mg/mL test compound (see step 2) was added to 195 μL DMSO; 500 μM control solution: 20 mM control stock solution (see step 2) was added to 195 μL DMSO.
(§10) 2) 0.5% BSA phosphate buffer solution: 0.05 g of BSA was added to 10 mL of phosphate buffer (see step 1).
(§11) 3) 5 μg/mL test compound dosing solution: 40 μL of 125 μg/mL test compound solution was added to 960 μL of 0.5% BSA phosphate buffer solution, shaken and mixed evenly, and the dosing solution was placed in a 37° C. water bath and preheated for 5 minutes.
(§12) 20 μM control dosing solution: 40 μL of 500 μM control solution was added to 960 μL of 0.5% BSA phosphate buffer solution, shaken and mixed evenly, and the dosing solution was placed in a 37° C. water bath and preheated for 5 minutes.
(§13) 5. 10 μL of 5 μg/mL test compound and 20 μM control solution were added to the wells of the 96-well plate set at different time points (0 minute, 1 hour, 2 hours and 4 hours). The number of duplicate samples was 3.
(§14) 6. 500 μL of ACN (IS) containing 5% FA was added to the wells set at 0 minute. 90 μL of plasma was then added thereto, mixed evenly, sealed with the film and stored at 4° C. (the number of duplicates was 3).
(§15) 7. 90 μL of plasma was added to the wells set at 1 hour, 2 hours and 4 hours (the number of replicates was 3), followed by timing (the final concentration of the test compound was 500 ng/mL, and that of the control was 2 μM).
(§16) 9. All samples (0 minutes, 1 hour, 2 hours, and 4 hours) at different time points on the 96-well plate were placed on a shaker (IKA, MTS 2/4) and shaken at 600 rpm for 60 minutes. The samples were then centrifuged for 15 minutes on a centrifuge machine (Thermo Multifuge×3R) at 5594×g.
(§17) 10. 150 μL of the supernatant was taken out from the centrifuged sample and sent to LC-MS/MS for analysis (conventional peptide LC-MS/MS analysis).

[3] = Plasma stability, mouse plasma; assay type: in vitro ADME; settings: 37° C., 0-4 hours, LC-MS/MS, "Very long" = no significant degradation found in the test (4 hours); for Mouse plasma (T1/2 (h)): 500 ng/mL; for half-life at 500 ng/mL: read-out: Mouse plasma (T1/2 (h)) (converted)
Experimental: as §1, §2, §3, §4, §5, §6, §7, §8, §9, §10, §11, §12, §13, §14, §15, §16, §17

[4] = determination by the method of Effect Embodiment 1, read-out: EC50

| SMILES | EC50 [1, 4] | EC50 [1] | also measured |
| --- | --- | --- | --- |
| CC(C)C[C@@H](C(=O)N1CSC[C@H]1C(=O)N[C@H](CO)C(=O)N[C@@H](CCC(N)=O)C(=O)N[C@@H](Cc1ccc2ccccc2c1)C(=O)N[C@H](C)C(=O)N1Cc2ccccc2C[C@H]1C(=O)N[C@@H](CO)C(=O)O)N(C)C(=O)[C@H](Cc1ccccc1)NC(=O)[C@H](N)Cc1ccc(O)cc1 [YW-122, (D-Tyr)-Phe-(NMe-Leu)-Thz-(D-Ser)-Gln-2Nal-(D-Ala)-Tic-Ser-OH] (H-[dY]F[NMeL][Thz][dS]Q[2Nal][dA][Tic]S-OH) | – | 0.6 nM | half-life at 500 ng/mL [2]: 79.6 h; Mouse plasma (T1/2 (h)) [3]: Very long |
| CCCCCCCCCCCCCCCC(=O)NCCOCCOCCOCCOCCOCCOCCOCCOCCC(=O)NCC(=O)NCC(=O)N[C@H](Cc1ccc(O)cc1)C(=O)N[C@@H](Cc1ccccc1)C(=O)N(C)[C@@H](CC(C)C)C(=O)N1CCC[C@H]1C(=O)N[C@H](CO)C(=O)N[C@@H](CCC(N)=O)C(=O)N[C@@H](Cc1ccccc1)C(=O)N[C@H](C)C(=O)N1Cc2ccccc2C[C@H]1C(=O)N[C@@H](CO)C(=O)O [YW-133, Palm-PEG8-Gly-Gly-(D-Tyr)-Phe-(NMe-Leu)-Pro-(D-Ser)-Gln-Phe-(D-Ala)-Tic-Ser-OH] ({Palmitoyl-PEG8}-GG[dY]F[NMeL]P[dS]QF[dA][Tic]S-OH) | 0.7 nM | – | half-life at 500 ng/mL [2]: 13.7 h; half-life at 500 ng/mL [3]: 67.1 h |
| CCCC[C@H](NC(=O)[C@H](Cc1ccccc1)NC(=O)[C@H](N)Cc1ccc(O)cc1)C(=O)N1CCC[C@H]1C(=O)N[C@H](CO)C(=O)N[C@@H](CCC(N)=O)C(=O)N[C@@H](Cc1ccccc1)C(=O)N[C@H](C)C(=O)N1Cc2ccccc2C[C@H]1C(=O)N[C@@H](CO)C(=O)O [YW-197, (D-Tyr)-Phe-Nle-Pro-(D-Ser)-Gln-Phe-(D-Ala)-Tic-Ser] (H-[dY]F[Nle]P[dS]QF[dA][Tic]S-OH) | – | 10 nM | – |
| CC(C)C[C@@H](C(=O)N1CCC[C@H]1C(=O)N[C@H](CO)C(=O)N[C@@H](CCC(N)=O)C(=O)N[C@@H](Cc1ccccc1)C(=O)N[C@H](C)C(=O)N1Cc2ccccc2C[C@H]1C(=O)N[C@@H](CO)C(=O)O)N(C)C(=O)[C@H](Cc1cccc2ccccc12)NC(=O)[C@H](N)Cc1ccc(O)cc1 [YW-199, (D-Tyr)-1Nal-(NMe-Leu)-Pro-(D-Ser)-Gln-Phe-(D-Ala)-Tic-Ser] (H-[dY][1Nal][NMeL]P[dS]QF[dA][Tic]S-OH) | – | 2.9 nM | – |
| CC(C)C[C@@H](C(=O)N1CCC[C@H]1C(=O)N[C@H](CO)C(=O)N[C@@H](CCC(N)=O)C(=O)N[C@@H](Cc1ccccc1)C(=O)N[C@H](C)C(=O)N1Cc2ccccc2C[C@H]1C(=O)N[C@@H](CO)C(=O)O)N(C)C(=O)[C@H](Cc1ccc2ccccc2c1)NC(=O)[C@H](N)Cc1ccc(O)cc1 [YW-200, (D-Tyr)-2Nal-(NMe-Leu)-Pro-(D-Ser)-Gln-Phe-(D-Ala)-Tic-Ser] (H-[dY][2Nal][NMeL]P[dS]QF[dA][Tic]S-OH) | – | 19 nM | – |
| CC(C)C[C@@H](C(=O)N1CC(F)(F)C[C@H]1C(=O)N[C@H](CO)C(=O)N[C@@H](CCC(N)=O)C(=O)N[C@@H](Cc1ccc2ccccc2c1)C(=O)N[C@H](C)C(=O)N1Cc2ccccc2C[C@H]1C(=O)N(C)[C@@H](CO)C(=O)O)N(C)C(=O)[C@H](Cc1ccccc1)NC(=O)[C@H](N)Cc1ccc(O)cc1 [YW-224, (D-Tyr)-Phe-(NMe-Leu)-Pro(diF)-(D-Ser)-Gln-2Nal-(D-Ala)-Tic-NMeSer] (H-[dY]F[NMeL][Pro(4,4-F2)][dS]Q[2Nal][dA][Tic][NMeS]-OH) | – | 1.3 nM | – |

More lines, main results first:

| EC50 [1, 4] | SMILES | EC50 [1] | also measured |
| --- | --- | --- | --- |
| 0.6 nM | CN[C@H](Cc1ccc(O)cc1)C(=O)N[C@@H](Cc1ccccc1)C(=O)N(C)[C@@H](CC(C)C)C(=O)N1CSC[C@H]1C(=O)N[C@H](CO)C(=O)N[C@@H](CCC(N)=O)C(=O)N[C@@H](Cc1ccc2ccccc2c1)C(=O)N[C@H](C)C(=O)N1Cc2ccccc2C[C@H]1C(=O)N(C)[C@@H](CO)C(=O)O [YW-125, (D-NMe-Tyr)-Phe-(NMe-Leu)-Thz-(D-Ser)-Gln-2Nal-(D-Ala)-Tic-(NMe-Ser)-OH] (H-[dNMeY]F[NMeL][Thz][dS]Q[2Nal][dA][Tic][NMeS]-OH; N-terminus assumed) | – | Mouse plasma (T1/2 (h)) [3]: Very long |
| 0.7 nM | CCCCCCCCCCCCCCCC(=O)NCCOCCOCCOCCOCCOCCOCCOCCOCCC(=O)NCCC(=O)NCCC(=O)N[C@H](Cc1ccc(O)cc1)C(=O)N[C@@H](Cc1ccccc1)C(=O)N(C)[C@@H](CC(C)C)C(=O)N1CCC[C@H]1C(=O)N[C@H](CO)C(=O)N[C@@H](CCC(N)=O)C(=O)N[C@@H](Cc1ccccc1)C(=O)N[C@H](C)C(=O)N1Cc2ccccc2C[C@H]1C(=O)N[C@@H](CO)C(=O)O [YW-134, Palm-PEG8-βAla-βAla-(D-Tyr)-Phe-(NMe-Leu)-Pro-(D-Ser)-Gln-Phe-(D-Ala)-Tic-Ser-OH] ({Palmitoyl-PEG8-βAla-βAla}-[dY]F[NMeL]P[dS]QF[dA][Tic]S-OH) | – | half-life at 500 ng/mL [2]: 14 h; half-life at 500 ng/mL [3]: 11.4 h |
| 62 nM | CC(C)C[C@@H](C(=O)N1CCC[C@H]1C(=O)N[C@@H](C(=O)N[C@@H](CCC(N)=O)C(=O)N[C@@H](Cc1ccccc1)C(=O)N[C@H](C)C(=O)N1Cc2ccccc2C[C@H]1C(=O)N[C@@H](CO)C(=O)O)[C@H](C)O)N(C)C(=O)[C@H](Cc1ccccc1)NC(=O)[C@H](N)Cc1ccc(O)cc1 [YW-204, (D-Tyr)-Phe-(NMe-Leu)-Pro-(D-Thr)-Gln-Phe-(D-Ala)-Tic-Ser] (H-[dY]F[NMeL]P[dT]QF[dA][Tic]S-OH; N-terminus assumed) | – | – |
| 6.2 nM | Cc1ccc(C[C@H](NC(=O)[C@@H](C)NC(=O)[C@H](Cc2ccccc2)NC(=O)[C@H](CCC(N)=O)NC(=O)[C@@H](CO)NC(=O)[C@@H]2CCCN2C(=O)[C@H](CC(C)C)N(C)C(=O)[C@H](Cc2ccccc2)NC(=O)[C@H](N)Cc2ccc(O)cc2)C(=O)N[C@@H](CO)C(=O)O)cc1 [YW-205, (D-Tyr)-Phe-(NMe-Leu)-Pro-(D-Ser)-Gln-Phe-(D-Ala)-Phe(4-Me)-Ser] (H-[dY]F[NMeL]P[dS]QF[dA][Phe(4-Me)]S-OH) | – | – |
| 3.3 nM | CC(C)C[C@@H](C(=O)N1CC(F)(F)C[C@H]1C(=O)N[C@H](CO)C(=O)N[C@@H](CCC(N)=O)C(=O)N[C@@H](Cc1ccc2ccccc2c1)C(=O)N[C@H](C)C(=O)N1Cc2ccccc2C[C@H]1C(=O)N(C)[C@@H](CO)C(=O)O)N(C)C(=O)[C@H](Cc1ccccc1)NC(=O)[C@H](N)Cc1ccc(O)c(F)c1 [YW-226, (D-Tyr(3F))-Phe-(NMe-Leu)-(DiFluorPro)-(D-Ser)-Gln-(Nal-2)-(D-Ala)-Tic-(NMe-Ser)] (H-[dTyr(3-F)]F[NMeL][Pro(4,4-F2)][dS]Q[2Nal][dA][Tic][NMeS]-OH) | – | – |
